# In patent US12180226B2, “Spirotricycle RIPK1 inhibitors and methods of uses thereof” (Merck Sharp & Dohme LLC, priority 2021, dated 2024):
# Structures can show the parent of a compound that is named as a salt.
# Target: RIPK1 (recombinant GST-RIPK1 kinase domain, residues 1-327) (Homo sapiens (Human), UniProt Q13546)
# Assay: RIPK1-ADP-Glo Enzymatic Assay
# Assay type: biochemical
# Conditions: ADP-Glo; 25 nM GST-RIPK1, 300 μM ATP; assay lower limit ~25 nM; read-out: RIPK1 V0 Ec50
# Procedure, shortened: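 GST-tagged kinase domain (residues 1-327, Sf21-expressed), 25 nM, pre-incubated 30 min with compound at ambient temperature, then reacted 150 min with 300 μM ATP and 3 μM dephosphorylated MBP in HEPES pH 7.3 buffer. ADP measured by ADP-Glo luminescence; EC50 from ten-point titration (top 100000 nM), four-parameter fit.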
# Chain of RIPK1 (recombinant GST-RIPK1 kinase domain, residues 1-327) (Q13546 1-327): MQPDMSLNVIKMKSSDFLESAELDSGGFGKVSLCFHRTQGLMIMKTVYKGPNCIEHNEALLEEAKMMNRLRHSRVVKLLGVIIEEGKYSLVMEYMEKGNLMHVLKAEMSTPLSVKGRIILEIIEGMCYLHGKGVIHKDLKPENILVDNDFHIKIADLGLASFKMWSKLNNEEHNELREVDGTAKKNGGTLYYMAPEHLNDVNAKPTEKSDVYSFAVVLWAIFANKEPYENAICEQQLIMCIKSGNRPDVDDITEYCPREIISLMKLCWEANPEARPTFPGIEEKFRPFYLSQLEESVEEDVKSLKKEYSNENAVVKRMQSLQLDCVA
row,SMILES,EC50 [µM]
1,"COC(=O)N1CCC2(CC1)O[C@@H]1CC[C@@H](c3cc(F)cc(F)c3)N1C2=O [Example 1.2, methyl (5′S,7a′R)-5′-(3,5-difluorophenyl)-3′-oxotetrahydro-1H,3′H-spiro[piperidine-4,2′-pyrrolo[2,1-b] [1,3]oxazole]-1-carboxylate]",0.115
2,"COc1cc(N2CCC3(CC2)O[C@@H]2CC[C@@H](c4cc(F)cc(F)c4)N2C3=O)nc(C)c1C#N [Example 4.69, 6-[(5′S,7a′R)-5′-(3,5-difluorophenyl)-3′-oxotetrahydro-1H,3′H-spiro[piperidine-4,2′-pyrrolo[2,1-b] [1,3]oxazol]-1-yl]-4-methoxy-2-methylpyridine-3-carbonitrile]",0.114
3,"O=C1N2[C@@H](CC[C@H]2c2ccccc2)OC12CCN(c1cccc3ncnn13)CC2F (single isomer, unassigned) [Example 13.17, (3[R or S], 4[S or R], 5′S,7a′R)-1-([1,2,4]triazolo[1,5-a]pyridin-5-yl)-3-fluoro-5′-phenyltetrahydro-3′H-spiro[piperidine-4,2′-pyrrolo[2,1-b]oxazol]-3′-one, TFA salt]",< 0.025
4,"O=C(c1ccccc1)N1CCC2(CC1)C[C@@H]1OC[C@@H](c3ccccc3)N1C2=O [Example 7.3, (3′R,7a′S)-1-(benzenecarbonyl)-3′-phenyltetrahydro-5′H-spiro[piperidine-4,6′-pyrrolo[2,1-b][1,3]oxazol]-5′-one]",0.102
5,"O=C(c1cnn2c1CSCC2)N1CCC2(CC1)O[C@@H]1CC[C@@H](c3cc(F)cc(F)c3)N1C2=O [Example 6.39, (5′S,7a′R)-5′-(3,5-difluorophenyl)-1-(6,7-dihydro-4H-pyrazolo-[5,1-c][1,4]thiazine-3-carbonyl)tetrahydro-3′H-spiro[piperidine-4,2′-pyrrolo[2,1-b] [1,3]oxazol]-3′-one]",0.738
6,"O=C(c1ccnnc1)N1CCC2(CC1)O[C@@H]1CC[C@@H](c3cc(F)cc(F)c3)N1C2=O [Example 6.99, (5′S,7a′R)-5′-(3,5-difluorophenyl)-1-(pyridazine-4-carbon-yl)tetrahydro-3′H-spiro[piperidine-4,2′-pyrrolo[2,1-b][1,3]-oxazol]-3′-one]",0.146
7,"O=C1N2[C@@H](CC[C@H]2c2ccccc2F)OC12CN(c1cc(Cl)ncn1)C2 [Example 4.107, (5′S,7a′R)-1-(6-chloropyrimidin-4-yl)-5′-(2-fluorophenyl)tetrahydro-3′H-spiro[azetidine-3,2′-pyrrolo[2,1-b]oxazol]-3′-one]",0.101
8,"Cc1ccc(C(=O)N2CCC3(CC2)O[C@@H]2CC[C@@H](c4cc(F)cc(F)c4)N2C3=O)cn1 [Example 6.69, (5′S,7a′R)-5′-(3,5-difluorophenyl)-1-(6-methylpyridine-3-carbonyl)tetrahydro-3′H-spiro[piperidine-4,2′-pyrrolo[2,1-b] [1,3]oxazol]-3′-one]",0.0468
9,"O=C(c1cccc2nccnc12)N1CCC2(CC1)O[C@@H]1CC[C@@H](c3cc(F)cc(F)c3)N1C2=O [Example 6.55, (5′S,7a′R)-5′-(3,5-difluorophenyl)-1-(quinoxaline-5-carbon-yl)tetrahydro-3′H-spiro[piperidine-4,2′-pyrrolo[2,1-b][1,3]-oxazol]-3′-one]",0.28
10,"CC1C[C@@]2(CCN1C(=O)c1ccccc1)O[C@@H]1CC[C@@H](c3cccc(F)c3)N1C2=O (stereo partly drawn) [Example 6.160, (4R,5′S,7a′R)-1-(benzenecarbonyl)-5′-(3-fluorophenyl)-2-methyltetrahydro-3′H-spiro[piperidine-4,2′-pyrrolo[2,1-b] [1,3]oxazol]-3′-one]",< 0.025
11,"CC1C[C@@]2(CCN1C(=O)c1ccccc1)O[C@@H]1CC[C@@H](c3cccc(F)c3)N1C2=O (stereo partly drawn) [Example 6.161, (4R,5′S,7a′R)-1-(benzenecarbonyl)-5′-(3-fluorophenyl)-2-methyltetrahydro-3′H-spiro[piperidine-4,2′-pyrrolo[2,1-b][1,3]-oxazol]-3′-one]",0.275
12,"O=C(c1ccc2nscc2c1)N1CCC2(CC1)O[C@@H]1CC[C@@H](c3cc(F)cc(F)c3)N1C2=O [Example 6.42, (5′S,7a′R)-1-(2,1-benzothiazole-5-carbonyl)-5′-(3,5-difluorophenyl)tetra-hydro-3′H-spiro [piperidine-4,2′-pyrrolo[2,1-b][1,3]oxazol]-3′-one]",< 0.025
13,"O=C(c1nnn2ccccc12)N1CCC2(CC1)O[C@@H]1CC[C@@H](c3cc(F)cc(F)c3)N1C2=O [Example 5.66, (5′S,7a′R)-1-([1,2,3]-triazolo-[1,5-a]pyridine-3-carbonyl)-5′-(3,5-difluoro-phenyl)tetrahydro-3′H-spiro[piperidine-4,2′-pyrrolo[2,1-b]oxazol]-3′-one]",0.0811
14,"CC(=O)c1ccc(N2CCC3(CC2)O[C@@H]2CC[C@@H](c4ccccc4)N2C3=O)n2ncnc12 [Example 4.270, (5′S,7a′R)-1-(8-acetyl[1,2,4]triazolo[1,5-a]pyridin-5-yl)-5′-phenyltetrahydro-3′H-spiro[piperidine-4,2′-pyrrolo[2,1-b] [1,3]oxazol]-3′-one]",< 0.025
15,"CC(C)OC(=O)c1ccc(N2CCC3(CC2)O[C@@H]2CC[C@@H](c4ccccc4)N2C3=O)nc1 [Example 4.190, propan-2-yl 6-[(5′S,7a′R)-3′-oxo-5′-phenyltetrahydro-1H,3′H-spiro[piperidine-4,2′-pyrrolo[2,1-b] [1,3]oxazol]-1-yl]pyridine-3-carboxylate]",0.0926
16,"O=C(c1c(F)cccc1F)N1CCC2(CC1)O[C@@H]1CC[C@@H](c3cc(F)cc(F)c3)N1C2=O [Example 5.56, (5′S,7a′R)-1-(2,6-difluoro-benzoyl)-5′-(3,5-difluoro-phenyl)tetrahydro-3′H-spiro[piperidine-4,2′-pyrrolo[2,1-b]oxazol]-3'-one]",< 0.025
17,"O=C(c1ccc(N2CCC3(CC2)O[C@@H]2CC[C@@H](c4ccccc4)N2C3=O)nc1)C(F)F [Example 4.161, (5′S,7a′R)-1-[5-(difluoroacetyl)pyridin-2-yl]-5′-phenyltetrahydro-3′H-spiro[piperidine-4,2′-pyrrolo[2,1-b] [1,3]oxazol]-3′-one]",< 0.025
18,"O=C1N2[C@@H](CC[C@H]2c2cc(F)cc(F)c2)OC12CCN(c1ncnc3c(F)cnn13)CC2 [Example 4.250, (5′S,7a′R)-5′-(3,5-difluorophenyl)-1-(8-fluoropyrazolo[1,5-a] [1,3,5]triazin-4-yl)tetrahydro-3′H-spiro[piperidine-4,2′-pyrrolo[2,1-b] [1,3]oxazol]-3′-one]",< 0.025
19,"O=C1N2[C@@H](CC[C@H]2c2cc(F)cc(F)c2)OC12CCN(c1ccnc3ncnn13)CC2 [Example 4.83, (5′S,7a′R)-1-([1,2,4]triazolo[1,5-a]pyrimidin-7-yl)-5′-(3,5-difluorophenyl)tetrahydro-3′H-spiro[piperidine-4,2′-pyrrolo[2,1-b]oxazol]-3′-one, TFA salt]",0.363
20,"O=C(c1ccccn1)N1CCC2(CC1)O[C@@H]1CC[C@@H](c3cc(F)cc(F)c3)N1C2=O [Example 6.101, (5′S,7a′R)-5′-(3,5-difluorophenyl)-1-(pyridine-2-carbonyl) tetrahydro-3′H-spiro [piperidine-4,2′-pyrrolo[2,1-b][1,3]-oxazol]-3′-one]",0.0569
21,"O=C(c1nnc(-c2ccccn2)s1)N1CCC2(CC1)O[C@@H]1CC[C@@H](c3cc(F)cc(F)c3)N1C2=O [Example 6.45, (5′S,7a′R)-5′-(3,5-difluorophenyl)-1-[5-(pyridin-2-yl)-1,3,4-thiadiazole-2-carbon-yl]tetrahydro-3′H-spiro[piperidine-4,2′-pyrrolo[2,1-b][1,3]oxazol]-3′-one]",0.451
22,O=C(c1cc(F)ccc1F)N1CCC2(O[C@@H]3CC[C@@H](c4ccccc4)N3C2=O)C(F)C1 (stereo partly shown) [Example 6.112],< 0.025
23,"O=C(c1ccc2c(c1)CCO2)N1CCC2(CC1)O[C@@H]1CC[C@@H](c3cc(F)cc(F)c3)N1C2=O [Example 6.75, (5′S,7a′R)-5′-(3,5-difluorophenyl)-1-(2,3-dihydro-1-benzo-furan-5-carbonyl)-tetrahydro-3′H-spiro [piperidine-4,2′-pyrrolo[2,1-b][1,3]-oxazol]-3′-one]",0.0247
24,"O=C(c1onc2ccccc12)N1CCC2(CC1)O[C@@H]1CC[C@@H](c3cc(F)cc(F)c3)N1C2=O [Example 6.50, (5′S,7a′R)-1-(2,1-benzoxazole-3-carbonyl)-5′-(3,5-difluorophenyl)tetra-hydro-3′H-spiro [piperidine-4,2′-pyrrolo[2,1-b][1,3]oxazol]-3′-one]",< 0.025
25,"O=C1N2[C@@H](CC[C@H]2c2ccccc2)OC12CCN(c1ncc(-c3ncco3)cn1)CC2 [Example 21.15, (5′S,7a′R)-1-[5-(1,3-oxazol-2-yl)pyrimidin-2-yl]-5′-phenyltetrahydro-3′H-spiro[piperidine-4,2′-pyrrolo[2,1-b][1,3]oxazol]-3′-one]",< 0.025
26,"N#Cc1ccc(N2CCC3(CC2)O[C@@H]2CC[C@@H](c4cc(F)cc(F)c4)N2C3=O)nn1 [Example 4.100, 6-((5′S,7a′R)-5′-(3,5-difluorophenyl)-3′-oxotetrahydro-3′H-spiro[piperidine-4,2′-pyrrolo[2,1-b]oxazol]-1-yl)pyridazine-3-carbonitrile]",0.24
27,"O=C1N2[C@@H](CC[C@H]2c2ccccc2)OC12CCN(c1ncnc3c1CCO3)CC2 [Example 4.217, (5′S,7a′R)-1-(5,6-dihydrofuro[2,3-d]pyrimidin-4-yl)-5′-phenyltetrahydro-3′H-spiro[piperidine-4,2′-pyrrolo[2,1-b] [1,3]oxazol]-3′-one]",0.0258
28,"O=C1N2[C@@H](CC[C@H]2c2cc(F)cc(F)c2)OC12CCN(c1nccn3cccc13)CC2 [Example 13.10, (5′S,7a′R)-5′-(3,5-difluorophenyl)-1-(pyrrolo[1,2-a]pyrazin-1-yl)tetrahydro-3′H-spiro[piperidine-4,2′-pyrrolo[2,1-b]oxazol]-3′-one]",0.0368
